Measured values from patent publication US4207318A, “Novel imidazobenzoxazines” (Roussel Uclaf, priority 1977, dated 1980).
Where two headings read alike, the source gives them in different places.

System: Passive cutaneous anaphylaxis
Assay: Passive cutaneous anaphylaxis (PCA) in rats
Type: in vivo
Conditions: Rattus norvegicus, read-out: ED50 (dose of drug giving 50% inhibition), dosed immediately prior to challenge, male rats, ovalbumen antigen
Procedure: Passive cutaneous anaphylaxis (PCA) in rats
The following compounds were tested for their physiological activity in the test: methyl 8-chloro-4H-imidazo-[2,1-c][1,4]-benzoxazine-2-carboxylate (compound A), methyl 8-methyl-4H-imidazo-[2,1-c][1,4]-benzoxazine-2-carboxylate (compound B), 8-chloro-4H-imidazo-[2,1-c][1,4]-benzoxazine-2-carboxylic acid (compound C), 7-methyl-4H-imidazo-[2,1-c][1,4]-benzoxazine-2-carboxylic acid (compound D), 8-chloro-7-methyl-4H-imidazo-[2,1-c][1,4]-benzoxazine-2-carboxylic acid (compound E), 6-methoxy-4H-imidazo-[2,1-c][1,4]-benzoxazine-2-carboxylic acid (compound F) and 8-methyl-4H-imidazo-[2,1-c][1,4]-benzoxazine-2-carboxylic acid (compound G).
Cutaneous anaphylaxis was induced in rats by intradermal (ID) sensitization with antiserum followed three days later by systemic challenge with antigen. Evans blue dye injected with the antigen is used as a marker to assess the severity of the local response. Anti-allergic drugs inhibit this reaction. This method has been described by OVARY (1962) "Passive Cutaneous Anaphylaxis in Allergology" Page 358-367 Ed. Brown: Pergamon Press. Animals: -male rats weighing 180-220 grams are used in groups of seven.
Preparation of Antigen for Sensitization (Alum precipitated ovalbumen)
1. Wash 120 grams of Al(OH)3 gel in 140 ml of saline (use of a macerater facilitates mixing).
2. Centrifuge at 3,000 rpm for about 10 minutes.
3. Resuspend the precipitate with 300 ml of albumen egg powder (1.3 mg/ml) in saline and allow to stand for 30 minutes.
4. Centrifuge at 3,000 rpm for 10 minutes.
5. Weigh the wet precipitate and to each gram weight add 1 ml of saline. Store in refrigerator (Quantity sufficient for 60 rats for a 3 day sensitization program).
Preparation of Antiserum (anti-ovalbumen)
1 ml of the alum precipitated ovalbumen was injected subcutaneously into rats weighing 180-200 grams on days 0,2,4. The rats were bled on day 14 either by cardiac puncture or via the dorsal abdominal aorta. Equal quantities of serum from each animal were pooled and thoroughly mixed and 2 ml aliquots were stored at -20° C. in plastic tubes.
The antiserum for sensitization was diluted so that an ID injection of 0.1 ml into control animals would give an average score of a single spot of between 2.0-3.5 using 5 point scoring system.
(A) SENSITIZATION: The rats were anaesthetized Nembutal (40-60 mg/kg i.p) and were then sensitized by four ID injections (0.1 ml each) on their shaved backs. The animals were then left for a period of three days to develop sensitization.
(B) […]: The sensitized rats were dosed orally or intraveneously with the drug immediately prior to intraveneous challenge via the superficial penile vein with 1 ml of an antigen/Evans blue mixture (1 mg albumen egg powder in 0.5 ml saline plus 0.5 ml of 1% Evans blue). The injections were speeded up by using an automatic 1 ml self-filling glass syringe. The "challenged" rats were killed after 30 minutes, (usually pithed) and their skin on the dorsal surface was removed. The degree and area of blueing, proportional to the anaphylactic reaction was assessed on a five point scoring system.
1. Total scores for sites 1,2,3 and 4=X
2. Mean value of X for each group=X
X c=X for control group [formula] 5.
ED50 values for the compounds tested in the passive cutaneous anaphylaxis screen (in rats) are as follows: […]

Structure (SMILES)	ED50 (P.O. (oral)) [mg/kg]	ED50 (I.V. (intravenous)) [mg/kg]
COC(=O)c1cn2c(n1)COc1ccc(Cl)cc1-2 [A, methyl 8-chloro-4H-imidazo-[2,1-c][1,4]-benzoxazine-2-carboxylate]	2.79	–
COC(=O)c1cn2c(n1)COc1ccc(C)cc1-2 [B, methyl 8-methyl-4H-imidazo-[2,1-c][1,4]-benzoxazine-2-carboxylate]	1.46	–
O=C(O)c1cn2c(n1)COc1ccc(Cl)cc1-2 [C, 8-chloro-4H-imidazo-[2,1-c][1,4]-benzoxazine-2-carboxylic acid]	0.13	0.42
Cc1ccc2c(c1)OCc1nc(C(=O)O)cn1-2 [D, 7-methyl-4H-imidazo-[2,1-c][1,4]-benzoxazine-2-carboxylic acid]	4	0.39
Cc1cc2c(cc1Cl)-n1cc(C(=O)O)nc1CO2 [E, 8-chloro-7-methyl-4H-imidazo-[2,1-c][1,4]-benzoxazine-2-carboxylic acid]	–	0.75
COc1cccc2c1OCc1nc(C(=O)O)cn1-2 [F, 6-methoxy-4H-imidazo-[2,1-c][1,4]-benzoxazine-2-carboxylic acid]	–	3.27
Cc1ccc2c(c1)-n1cc(C(=O)O)nc1CO2 [G, 8-methyl-4H-imidazo-[2,1-c][1,4]-benzoxazine-2-carboxylic acid]	0.37	0.35
